{"source": "patent US20010036460A1", "about": "“Targeted death cancer cells” (priority 2000, published 2001)", "key": {"[1]": {"system": "LNCaP cells stably transfected with the plasmid p22EDT1", "test": "Trypan blue exclusion cell viability assay after 48 hours culture with 4-OHT (FIG. 3)", "format": "cell-based, human", "conditions": "4-OHT of varying concentrations", "procedure": "FIG. 3. […] Parental LNCAP cells (blue) and LNCaP cells stably transfected with the plasmid p22EDT1 (red) were cultured in the presence of 4-OHT of varying concentrations for 48 hours after which the trypan blue exclusion assay was used to assess cell viability. p22EDT1 contains an SV40 promoter driving an FLP-ERt gene sequence and a CMV promoter driving a DT-A sequence disrupted by an FRT-puro/pA-FRT cassette."}, "[2]": {"system": "PC-3 cells co-infected with the bcl2/FLP-ERt and RSV/FRT2puroDT-A containing adenoviruses", "test": "In vitro test of gene therapy system: viable and clonogenic cell number after 4-OHT", "format": "cell-based, human", "conditions": "co-infected PC-3 cells, 4-OHT-treated versus non-treated cultures; 1, 2, 3 μM, 48 hours", "procedure": "PC-3 cells are co-infected with the bcl2/FLP-ERt and RSV/FRT2puroDT-A containing adenoviruses. Cell death resulting from administration of the synthetic ligand 4-hydroxytamoxifen (4-OHT) is tested in cultured cells. Adenoviral infection is carried out by the addition of viral solutions of varying ratios of the two viruses and at varying degrees of multiplicity of infection to cell monolayers. After three hours of exposure to virus, the medium is changed and cells are incubated in fresh medium containing 4-OHT. Three concentrations of 4-OHT are tested: 1, 2, and 3 μM. After 48 hours incubation with 4-OHT, the number of viable cells are determined using the Trypan blue exclusion assay and the MTT assay (8). Since DT-A kills irreversibly by both apoptosis, as well as nonapoptotic pathways (39), the number of apoptotic cells is also determined. In addition, the growth potential of cells following treatment with tamoxifen is determined using a clonogenic assay (8).\nIn infected cells, the binding of 4-OHT to the FLP-ERt fusion protein will activate FLP. This in turn will result in recombinational excision of the FRT-puropA-FRT sequence, expression of the DT-A subunit, and cell death. […] Control infections are done with the RSV/FRT2puroDT-A virus alone and with the RSV/puro virus. […]"}, "PC-3 xenografts": {"system": "PC-3 xenografts", "test": "In vivo test of gene therapy system: PC-3 xenograft tumor volume after 4-OHT", "parameters": "species or system male BALB/c nu/nu athymic mice", "procedure": "To further test the efficacy of the regulated recombination system for targeting DT-A to bcl-2 expressing cells, xenografts are generated in male BALB/c nu/nu athymic mice by the subcutaneous injection of PC-3 cells (38,40,42). To generate tumors, […] are mixed with Matrigel basement membrane matrix and injected subcutaneously into the flank of a mouse (38). When tumors reach a volume of about 50 mm^3, a mixture of bcl2/FLP-ERt and RSV/FRT2puroDT-A containing virus is injected directly into the tumor site. A 1:1 ratio of the two viruses is maintained, while the total number of plaque forming units varies (10^9, 5×10^9, and 10^10). Twenty-four hours after injection of the virus, 4-OHT is administered to the host mice either by a single injection directly into the tumor (100 μl of a 3 μM solution in PBS) or by intraperitoneal injection on five consecutive days (1 mg in 100 μl sunflower seed oil). At one, two, and three weeks following the administration of 4-OHT, mice are euthanized, tumors are excised, and their volume and wet weight determined. Tumor volume is calculated by multiplying caliper measurements of length, width, and depth and then multiplying by 0.5236 (23). […] Tumors are fixed and processed for histopathological examination. Other control groups in this study are xenografts infected only with the RSV/FRT2puroDT-A virus and xenografts injected only with PBS."}}}
{"substance": "4-hydroxytamoxifen [4-OHT]", "values": [{"measurement": "cell viability (DTA expression and cell death)", "setting": "[1]", "result": "results in DTA expression and cell death"}, {"measurement": "number of viable and clonogenic cells", "setting": "[2]", "result": "significantly reduced"}, {"measurement": "tumor size", "setting": "PC-3 xenografts; control xenografts infected only with the RSV/FRT2puroDT-A virus or injected only with PBS", "result": "no effect on tumor size"}, {"measurement": "tumor volume", "setting": "PC-3 xenografts; xenografts injected with 1:1 mixture of bcl2/FLP-ERt and RSV/FRT2puroDT-A virus, 4-OHT intratumoral or intraperitoneal, versus vehicle-treated control mice", "result": "significantly less"}]}
